Earlier results, collected in US20230210937A1, “COMPOSITIONS AND METHODS FOR THE TREATMENT AND/OR PROPHYLAXIS OF DIABETES AND OTHER CONDITIONS” (LIFELOCK BIOSCIENCE SOLUTIONS INC., priority 2019, published 2023).
Each block holds one compound with its values, some of them ahead of it.

How the values were obtained:
[1] = tested on: colon cancer cell line Caco-2
mTORC1 = mTORC1 (Homo sapiens, UniProt P42345)
PAK1 = PAK1 (Rattus norvegicus, UniProt P35465); conditions: skeletal muscle cells, co-immunoprecipitation
[2] = Caco-2, 100 ng/mL PMA, 2.5 mM IP6

Sequence of PAK1 (P35465 2-544 limits assumed): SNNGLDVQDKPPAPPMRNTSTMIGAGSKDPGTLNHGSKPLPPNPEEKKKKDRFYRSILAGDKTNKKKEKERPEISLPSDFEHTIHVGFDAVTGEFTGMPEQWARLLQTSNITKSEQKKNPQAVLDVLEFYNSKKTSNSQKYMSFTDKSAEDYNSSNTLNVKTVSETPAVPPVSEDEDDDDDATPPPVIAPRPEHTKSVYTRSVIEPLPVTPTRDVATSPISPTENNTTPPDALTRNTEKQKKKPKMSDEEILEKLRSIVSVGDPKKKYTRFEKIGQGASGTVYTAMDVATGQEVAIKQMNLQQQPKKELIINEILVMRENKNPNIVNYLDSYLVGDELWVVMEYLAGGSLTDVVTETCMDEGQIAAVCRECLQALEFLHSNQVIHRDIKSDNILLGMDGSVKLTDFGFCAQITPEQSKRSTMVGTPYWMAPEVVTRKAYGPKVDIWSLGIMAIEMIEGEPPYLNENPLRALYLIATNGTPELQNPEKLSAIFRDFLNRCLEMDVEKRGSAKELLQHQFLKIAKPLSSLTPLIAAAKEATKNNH

Structure (SMILES): O=P(O)(O)OC1C(OP(=O)(O)O)C(OP(=O)(O)O)C(OP(=O)(O)O)C(OP(=O)(O)O)C1OP(=O)(O)O [IP6, (1R,2S,3R,4R,5S,6s)-cyclohexane-1,2,3,4,5,6-hexayl hexakis[dihydrogen (phosphate)]]
MMP-1 expression, PMA and IP6 in comparison to PMA-stimulated cells [1, 2]: significant decrease
MMP-9 transcription induced by PMA [1, 2]: down-regulated
level of both MMP-2 and MMP-3 mRNAs in PMA-stimulated cells [1, 2]: decreased
MMP-2, MMP-3, MMP-10, MMP-13, and TIMP-1 expression ([1]; Caco-2, 2.5 mM of IP6, 6 and 12 h): significant decrease

TSC1/2 interaction (mTORC1): did not alter
raptor-mTOR association (mTORC1; leading to inhibition of mTORC1 activity): able to dissociate raptor from mTOR
phosphorylation of p70S6kinase 1 (S6K1) and 4E-BP1 (mTORC1; numerous cancer cell lines): inhibits
Structure (SMILES): COc1cc(/C=C/C(=O)CC(=O)/C=C/c2ccc(O)c(OC)c2)ccc1O [curcumin, (1E,6E)-1,7-Bis(4-hydroxy-3-methoxyphenyl)hepta-1,6-diene-3,5-dione]

insulin-stimulated associations of p41ARC, N-WASP, cortactin and actin (PAK1): ablated
Structure (SMILES): Oc1ccc2ccccc2c1SSc1c(O)ccc2ccccc12 [IPA3]
